Results: the CheMixHub ionic liquid set
± gives the uncertainty stated by the source.

Test: xn = mol fraction of the nth substance listed

CCCCCC[n+]1ccn(C)c1.[Cl-] + CCCCCC[n+]1ccn(C)c1.F[B-](F)(F)F
101 kPa
Conditions | electrical conductivity [S/m] | viscosity [mPa·s]
303 K, x1 = 0.2 | 0.0846 ± 0.0068 | –
303 K, x1 = 0.4 | 0.0415 ± 0.0033 | –
303 K, x1 = 0.6 | 0.0196 ± 0.0016 | –
303 K, x1 = 0.8 | 0.00783 ± 0.00063 | –
303 K, x1 = 1 | 0.00318 ± 0.00027 | –
303.15 K, x1 = 0.2 | – | 380 ± 120
303.15 K, x1 = 0.4 | – | 800 ± 250
303.15 K, x1 = 0.6 | – | 1835 ± 590
308 K, x1 = 0.2 | 0.113 ± 0.0091 | –
308 K, x1 = 0.4 | 0.0581 ± 0.0047 | –
308 K, x1 = 0.6 | 0.029 ± 0.0024 | –
308 K, x1 = 0.8 | 0.0123 ± 0.001 | –
308 K, x1 = 1 | 0.00531 ± 0.00044 | –
308.15 K, x1 = 0.2 | – | 275 ± 84
308.15 K, x1 = 0.4 | – | 550 ± 170
308.15 K, x1 = 0.6 | – | 1194 ± 380
313 K, x1 = 0.2 | 0.147 ± 0.012 | –
313 K, x1 = 0.4 | 0.0791 ± 0.0064 | –
313 K, x1 = 0.6 | 0.0413 ± 0.0034 | –
313 K, x1 = 0.8 | 0.0186 ± 0.0015 | –
313 K, x1 = 1 | 0.00852 ± 0.0007 | –
313.15 K, x1 = 0.2 | – | 204 ± 62
313.15 K, x1 = 0.4 | – | 390 ± 120
313.15 K, x1 = 0.6 | – | 810 ± 250
313.15 K, x1 = 0.8 | – | 1892 ± 610
318 K, x1 = 0.2 | 0.19 ± 0.015 | –
318 K, x1 = 0.4 | 0.106 ± 0.0086 | –
318 K, x1 = 0.6 | 0.0575 ± 0.0047 | –
318 K, x1 = 0.8 | 0.0272 ± 0.0022 | –
318 K, x1 = 1 | 0.0133 ± 0.0011 | –
318.15 K, x1 = 0.2 | – | 156 ± 47
318.15 K, x1 = 0.4 | – | 283 ± 86
318.15 K, x1 = 0.6 | – | 560 ± 170
318.15 K, x1 = 0.8 | – | 1237 ± 390
323 K, x1 = 0.2 | 0.24 ± 0.019 | –
323 K, x1 = 0.4 | 0.14 ± 0.011 | –
323 K, x1 = 0.6 | 0.0791 ± 0.0064 | –
323 K, x1 = 0.8 | 0.0392 ± 0.0032 | –
323 K, x1 = 1 | 0.0202 ± 0.0016 | –
323.15 K, x1 = 0.2 | – | 122 ± 37
323.15 K, x1 = 0.4 | – | 213 ± 65
323.15 K, x1 = 0.6 | – | 400 ± 120
323.15 K, x1 = 0.8 | – | 840 ± 260
323.15 K, x1 = 1 | – | 1879 ± 600
328 K, x1 = 0.2 | 0.299 ± 0.024 | –
328 K, x1 = 0.4 | 0.179 ± 0.014 | –
328 K, x1 = 0.6 | 0.106 ± 0.0086 | –
328 K, x1 = 0.8 | 0.0547 ± 0.0044 | –
328 K, x1 = 1 | 0.0295 ± 0.0024 | –
328.15 K, x1 = 0.2 | – | 98 ± 29
328.15 K, x1 = 0.4 | – | 163 ± 49
328.15 K, x1 = 0.6 | – | 296 ± 90
328.15 K, x1 = 0.8 | – | 580 ± 180
328.15 K, x1 = 1 | – | 1228 ± 390
333 K, x1 = 0.2 | 0.368 ± 0.03 | –
333 K, x1 = 0.4 | 0.227 ± 0.018 | –
333 K, x1 = 0.6 | 0.139 ± 0.011 | –
333 K, x1 = 0.8 | 0.0747 ± 0.0061 | –
333 K, x1 = 1 | 0.0423 ± 0.0034 | –
333.15 K, x1 = 0.2 | – | 78 ± 24
333.15 K, x1 = 0.4 | – | 128 ± 38
333.15 K, x1 = 0.6 | – | 220 ± 67
333.15 K, x1 = 0.8 | – | 420 ± 130
333.15 K, x1 = 1 | – | 840 ± 260

CCC(C)O (centres undefined) + CCCCCC[n+]1ccn(C)c1.O=[N+]([O-])[O-]
100 kPa, x2 = 0
Conditions | viscosity [mPa·s]
293.15 K | 3.67 ± 0.18
298.15 K | 3.04 ± 0.15
303.15 K | 2.54 ± 0.13
308.15 K | 2.13 ± 0.11
313.15 K | 1.8 ± 0.09
318.15 K | 1.54 ± 0.08
323.15 K | 1.33 ± 0.07

CCCCCC[n+]1ccn(C)c1.[Cl-] + CCCCCO
101 kPa
Conditions | viscosity [mPa·s]
293.15 K, x1 = 0.0088 | 4.33 ± 0.09
293.15 K, x2 = 0.849 | 10.53 ± 0.22
303.15 K, x1 = 0.0042 | 3.1 ± 0.07
303.15 K, x1 = 0.0166 | 3.41 ± 0.07
303.15 K, x2 = 0.1514 | 1675 ± 100
313.15 K, x1 = 0.0042 | 2.37 ± 0.05
313.15 K, x2 = 0.2971 | 259.6 ± 8.7
313.15 K, x2 = 0.8012 | 8.12 ± 0.17
323.15 K, x2 = 0 | 783 ± 38
323.15 K, x2 = 0.8012 | 6.29 ± 0.14
333.15 K, x2 = 0.7018 | 9.13 ± 0.2

CCCC[N+]1(C)CCCCC1.F[P-](F)(F)(F)(F)F + CCCC[N+]1(C)CCCC1.F[P-](F)(F)(F)(F)F
102 kPa
Conditions | viscosity [mPa·s]
353.15 K, x1 = 0.5 | 154 ± 16
383.15 K, x1 = 0.3 | 41 ± 4
